A short description of this series: Distribution of test substance within plants after trunk injection. It counts as in vivo. Conditions: solution comprising 2% Brilliant Blue E 133 injected; trees felled and cut in pieces; over 24 hours. The text has this: The trunk injection devices have been tested regarding the use with different types of trunks, the speed of absorption, distribution of product within the plant, and the continuing usage of an injection device within a trunk. The injection devices have been tested with trunks with a diameter between 2 cm and 30 cm. The tests have been conducted with box, vine, hazelnut, walnut, maple, beach and oak. Further, trees such as date palm, citrus tree, and banana tree would be suitable as well.′ Speed of absorption is influenced by factors such as weather, season, time of day and injection pressure. Within tests conducted under ideal conditions, an injection pressure of 2.5 bars, and 10 ml of test substance, absorption times below 2 minutes have been achieved.
Distribution within plants has been tested injecting a solution comprising 2% Brilliant Blue E 133 (CAS reg. No. 3844-45-9.) as a test substance. Trees have afterwards been felled and cut in pieces to analyze the distribution of the test substance over time within the plant. The test substance did typically distribute over 5 meters within the stem over 24 hours.

`CCN(Cc1cccc(S(=O)(=O)[O-])c1)c1ccc(C(=C2C=CC(=[N+](CC)Cc3cccc(S(=O)(=O)[O-])c3)C=C2)c2ccccc2S(=O)(=O)[O-])cc1.[Na+].[Na+]` [Brilliant Blue E 133]: the “distribution of the test substance within the stem” value is recorded as roughly 5 meters.

The values are drawn from US12446495B2, “Injection systems, injection tools and methods for same” (Invaio Sciences International GmbH, priority 2018, dated 2025).
